This is an account of results in US11446312B2, “Compounds that modulate von Willebrand factor levels and their use in the treatment of blood disorders” (SOCIETE DES PRODUITS NESTLE S.A., priority 2018, dated 2022).

This assay has as its system vWF. Put plainly: Cultured Human Endothelial Cell vWF Expression Assay. The class given is cell-based. The settings on record: human iPSC-derived endothelial cells, 24h treatment, immunofluorescence intensity, vs DMSO control. Here is the method: Human induced-pluripotent stem cell derived endothelial cells and accompanying growth media were purchased from Cellular Dynamics International. ECs were cultured according to the manufacturer's protocol (Cellular Dynamics International). ECs were plated at a density of 10′000-15′000 cells/cm^2 in culture vessels which have been coated with fibronectin (Invitrogen) and maintained in a low oxygen incubator (37° C., 5% CO2, 5% O2). The EC maintenance media was exchanged every other day and comprised of VascuLife Basal medium +VascuLife VEGF medium complete kit (Lifeline Cell Technologies). For all experiments ECs of passage 0 or 1 were used. The Celastrol used was a synthetic organic chemical manufactured in the United States and purchased from Novus (catalog reference number NBP2-29362). vWF primary antibody was obtained from Abcam (ab6994), tubulin primary antibody was obtained from Abcam (ab7291), and the secondary antibodies were Alexa fluor (anti-mouse and anti-rabbit) obtained from Thermo Fisher Scientific.
Endothelial cells were plated into 96-well glass-bottom plates at a density of 10,000 cells per well. […] Quantification of the fluorescence intensity (which is indicative of protein levels) was performed using the MetaXpress software. […]
The figure (FIG. 1) depicts the quantification of the data for human endothelial cells treated with celastrol as described above. […]

Take `CC1=C(O)C(=O)C=C2C1=CC=C1[C@@]2(C)CC[C@@]2(C)[C@@H]3C[C@](C)(C(=O)O)CC[C@]3(C)CC[C@]12C` [Celastrol, 10-Hydroxy-2,4a,6a,9,12b,14a-hexamethyl-11-oxo-1,2,3,4,4a,5,6,6a,11,12b,13,14,14a,14b-tetradecahydro-picene-2-carboxylic acid]: the “vWF protein expression (normalized by the expression of tubulin)” value (1 μM celastrol) is listed as “significantly (***p<0.001) reduces vWF protein expression” and the “vWF protein expression (normalized by the expression of tubulin)” value (10 μM celastrol) is listed as “significantly (***p<0.001) reduces vWF protein expression”.
